Measurements from patent US6893665B2, “Formulations for treating or preventing mucositis” (Orapharma, Inc., priority 1999, dated 2005).
Structures can show the parent of a compound that is named as a salt.

System: mucositis induced by acute radiation exposure of the cheek pouch
Assay: Hamster cheek pouch model of radiation-induced oral mucositis, topical dosing, clinical scoring 0-5
Format: in vivo
Settings: hamsters, 35 Gy on Day 0, 0.1 mL of 0.1 mg/mL aqueous solution topically three times a day for 22 days; for mucositis scores (clinical scoring 0-5) versus placebo control group: compared with solution without drug
Experimental: Hamsters were randomly assigned to treatment groups with eight (8) animals per group. Each group was treated either with a drug solution or a control, water.
Animals were dosed three times a day for 22 days. The first dose was applied on day —1. Either a solution of the drug or water alone was applied in a volume of 0.1 ml three times per day.
Mucositis was induced by acute radiation exposure of the check pouch. A single dose of radiation (35 Gy/dose) was administered to all animals on Day 0. Prior to irradiation, animals were anesthetized with an intraperiotoneal injection of sodium pentobarbital (80 mg/kg) and the left buccal pouch was everted, fixed and isolated using a lead shield.
Beginning on day 6 and continuing every other day up to day 28, the cheek pouch was photographed. On days that photographs were taken, prior to the first dosing of the day, the animals were anesthetized using an inhalation anesthetic and the left cheek pouch of each animal was rinsed vigorously with sterile water to remove residual food debris or foreign contamination and blotted dry with a gauze sponge. The appearance of the cheek pouch was scored visually by comparison to a validated photographic scale, ranging from 0 for normal to 5 for severe ulceration (clinical scoring). In descriptive terms, this scale is defined as follows: […]
A score of 1-2 represents mild stage of the disease, whereas a score of 3-5 indicates moderate to severe mucositis.

Row | Compound | reduction in the number of animal days with scores of 3 or more, relative to the control group | mucositis scores (clinical scoring 0-5) versus placebo control group
1 | CN(C)[C@@H]1C(O)=C(C(N)=O)C(=O)[C@@]2(O)C(O)=C3C(=O)c4c(O)cccc4[C@@](C)(O)[C@H]3C[C@@H]12 [tetracycline hydrochloride] | more than 75% | Significantly lower scores
2 | meclocycline sulfosalicylate | more than 75% | Significantly lower scores
